Source: patent US20240140947A1, “COMPOUND FOR THE TREATMENT OF CANCER” (priority 2022, published 2024)
Read-outs that look alike come from different tables or passages of the source.

Assays:
[1] = test system: phosphorylation of Rb protein at serines 807/811 in MCF7 cells; test: Phospho-Serine 807/811 Rb ELISA in MCF7 cells; type: cell-based; conditions: Homo sapiens, read-out: IC50 ± SEM, modulation of pRB Serine 807/811
Protocol: Cellular CDK activity of Compound 1 and PF-06873600 were assessed in human CCNE1-amplified ovarian cancer cell line model OVCAR3 and human ER+ breast cancer cell line model MCF7 cells. […] OVCAR3 cells were treated overnight with 1 mM hydroxyurea to enrich for G1/S phase cells prior to treatment with inhibitors. Functional effects were measured in a 7-day anti-proliferation assay in one human ovarian cancer (OVCAR3), two human ER+ breast cancer (MCF7 and T47D) and three human non-small cell lung cancer (NCIH2087, NCIH358 and A549) cell line models.
OVCAR3 or MCF7 cells were seeded at 25,000 cells/well in 100 μL growth media and allowed to adhere at 37° C. with 5% CO2 overnight. OVCAR3 cells were treated overnight with 1 mM hydroxyurea to enrich for G1/S phase cells prior to treatment with inhibitors. The following day, compounds were serially diluted from a 10 mM top dose for an 11-point 3-fold dilution curve in DMSO. Compound 1 and PF-06873600 were intermediately diluted 1:200 into growth media prior to diluting 1:5 on cells for final concentration 10 μM to 0.1 nM in 0.1% DMSO on cells. […] Plates were read in luminescence mode and IC50 values calculated.
The cellular activity of Compound 1 was evaluated in ER+, HER2− MCF7 cells and CCNE1-amplified ovarian carcinoma. Activity was determined by inhibition of phosphorylation of […]

[2] = biological target: T1, CDK2/Cyclin E1 (Homo sapiens, UniProt P24941); test: CDK2/Cyclin E1 mobility shift assay; type: biochemical; conditions: geometric mean, 150 μM ATP
T1 construct: Wild-type full length CDK2/wild-type full length Cyclin E1 enzyme complex was produced in-house
Protocol: (CPC Scientific, Sunnyvale, CA). The mobility shift assay electrophoretically separates the fluorescently labeled peptides (substrate and phosphorylated product) following the kinase reaction. Both substrate and product are measured, and the ratio of these values is used to generate % conversion of substrate to product by the LabChip EZ Reader. […] The assay was initiated with the addition of ATP, following a fifteen minutes pre-incubation of enzyme and inhibitor at room temperature in the reaction mixture. The reaction was stopped after 45 minutes at room temperature by the addition of 50 μL of 80 mM EDTA, pH 7.5. The Ki value was determined from the fit of the data to the Morrison tight-binding competitive inhibition equation with the enzyme concentration as a variable.

[3] = biological target: T2, CDK6/Cyclin D3 (Homo sapiens, UniProt Q00534); test: CDK6/Cyclin D3 mobility shift assay; type: biochemical; conditions: geometric mean, 3.5 mM ATP
T2 construct: LJIC-2009G1/2010+PO4
T2 sequence (Q00534 whole entry): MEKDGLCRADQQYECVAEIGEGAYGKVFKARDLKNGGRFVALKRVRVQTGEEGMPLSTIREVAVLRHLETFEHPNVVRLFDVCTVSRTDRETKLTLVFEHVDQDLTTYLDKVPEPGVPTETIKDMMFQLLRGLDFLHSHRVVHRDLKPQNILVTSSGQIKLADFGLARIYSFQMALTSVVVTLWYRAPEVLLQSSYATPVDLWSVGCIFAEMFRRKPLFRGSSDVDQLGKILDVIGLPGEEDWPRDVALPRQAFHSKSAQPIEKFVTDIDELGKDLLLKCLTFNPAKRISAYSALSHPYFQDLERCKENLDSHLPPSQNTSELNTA
T2 sequence (P30281 whole entry partner): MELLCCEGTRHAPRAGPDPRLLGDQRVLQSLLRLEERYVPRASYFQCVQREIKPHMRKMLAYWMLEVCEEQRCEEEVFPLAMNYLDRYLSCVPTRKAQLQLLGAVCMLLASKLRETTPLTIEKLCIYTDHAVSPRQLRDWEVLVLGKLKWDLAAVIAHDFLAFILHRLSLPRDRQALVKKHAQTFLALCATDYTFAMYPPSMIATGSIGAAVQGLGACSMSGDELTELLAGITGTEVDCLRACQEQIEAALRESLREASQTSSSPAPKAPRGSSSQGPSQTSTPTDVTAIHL
Protocol: The mobility shift assay electrophoretically separates the fluorescently labeled peptides (substrate and phosphorylated product) following the kinase reaction. Both substrate and product are measured, and the ratio of these values is used to generate % conversion of substrate to product by the LabChip EZ Reader.
The reaction was stopped after 95 minutes by the addition of 50 μL of 30 mM EDTA. Ki determinations were made from a plot of the fractional velocity as a function of inhibitor concentration fit to the Morrison equation with the enzyme concentration as a variable.
For CDK4 and CDK6 mobility shift assays, see also Morrison, J. F. (1969) Kinetics of the reversible inhibition of enzyme-catalysed reactions by tight-binding inhibitors, Biochimica et biophysica acta 185, 269-286; and Murphy, D. J. (2004) Determination of accurate KI values for tight-binding enzyme inhibitors: an in silico study of experimental error and assay design, Analytical biochemistry 327, 61-67.

[4] = test system: MCF7, T47D, and HCC1428 parental ER+ breast cancer cell lines; test: Cell proliferation assay, parental ER+ breast cancer cell lines (range over lines); type: cell-based; conditions: Homo sapiens, read-out: anti-proliferation IC50 values, range over cell lines
Protocol: (§1) OVCAR3, MCF7, T47D, HCC1428, NCIH2087, NCIH358 or A549cells were seeded 1-3000 cells/well in 96-well plates in growth media containing 10% FBS and cultured overnight at 37° C. 5% CO2. The following day, compounds were serially diluted from a 10 mM top dose for an 11-point 3-fold dilution curve in DMSO. Compound 1 and PF-06873600 were intermediately diluted 1:200 into growth media prior to diluting 1:5 on cells for final concentration 10 μM to 0.1 nM in 0.1% DMSO on cells. Cells were incubated at 37° C. 5% CO2 for 7 days. CYQUANT Direct Cell Proliferation Assay (Molecular Probes, Eugene, OR) was then performed following manufacturer recommendations to determine the relative viable cell numbers on the Perkin Elmer Envision 2104 Multi Label Reader at 508 nm excitation and 527 nm emission wavelengths. IC50 values were calculated by concentration-response curve fitting utilizing a four-parameter analytical method using GraphPad Prism software.
(§2) The effect of Compound 1 on cell proliferation was assessed in multiple ER+ breast cancer cell lines, including parental and palbociclib resistant cell lines.
(§3) Similar results were shown with NCIH2087, NCIH358, and A549 NSCLC cell lines ([…].4).

[5] = test system: palbociclib resistant (PalboR) derivatives of MCF7, T47D, and HCC1428; test: Cell proliferation assay, palbociclib resistant derivatives (range over lines); type: cell-based; conditions: Homo sapiens, read-out: anti-proliferation IC50 values, range over cell lines
Protocol: as §1, §2, §3

SMILES | IC50 ([1]; MCF7, 24 h) | Ki [2] | Ki [3] | IC50 ([1]; MCF7, mean, treated 24 h (overnight)) | IC50 [4] | IC50 [5]
C[C@@]1(O)CCC[C@H]1n1c(=O)c(C(F)F)cc2cnc(NC3CCN(S(C)(=O)=O)CC3)nc21 [Compound 2, reference compound] | 70.6 nM | – | – | – | – | –
C[C@@]1(O)CCC[C@H]1n1c(=O)c(CC(F)F)cc2cnc(NC3CCN(S(N)(=O)=O)CC3)nc21 [Compound 1, 4-({6-(2,2-difluoroethyl)-8-[(1R,2R)-2-hydroxy-2-methylcyclopentyl]-7-oxo-7,8-dihydropyrido[2,3-d]pyrimidin-2-yl}amino)piperidine-1-sulfonamide] | – | 0.08 nM | 3.1 nM | 148 nM | 14.3 to 17.6 nM | 37.3 to 65.7 nM
